What all share (experiment): Kinase panel enzymatic inhibition assay (Nanosyn)
Holding throughout (assay type): biochemical
Settings in all cases: compound 5 μM; ATP at Km; 30-minute pre-incubation

For one test, the target named is T1, HGK (Homo sapiens, UniProt O95819).
T1 construct: purchased Nanosyn (contract screening)
In outline:
(§1)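 Enzymatic inhibition measured within a panel of at least 300 kinases, using a validated format such as Caliper LabChip mobility shift, ADP detection or time-resolved fluorescence. Compounds tested at 5 μM with ATP at each kinase's Km, after a 30-minute pre-incubation. Values given as percent inhibition or IC50.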

A further test has as its target T2, ARAF (Homo sapiens, UniProt P10398).
T2 construct: purchased Nanosyn (contract screening)
T2 sequence (P10398 1-606): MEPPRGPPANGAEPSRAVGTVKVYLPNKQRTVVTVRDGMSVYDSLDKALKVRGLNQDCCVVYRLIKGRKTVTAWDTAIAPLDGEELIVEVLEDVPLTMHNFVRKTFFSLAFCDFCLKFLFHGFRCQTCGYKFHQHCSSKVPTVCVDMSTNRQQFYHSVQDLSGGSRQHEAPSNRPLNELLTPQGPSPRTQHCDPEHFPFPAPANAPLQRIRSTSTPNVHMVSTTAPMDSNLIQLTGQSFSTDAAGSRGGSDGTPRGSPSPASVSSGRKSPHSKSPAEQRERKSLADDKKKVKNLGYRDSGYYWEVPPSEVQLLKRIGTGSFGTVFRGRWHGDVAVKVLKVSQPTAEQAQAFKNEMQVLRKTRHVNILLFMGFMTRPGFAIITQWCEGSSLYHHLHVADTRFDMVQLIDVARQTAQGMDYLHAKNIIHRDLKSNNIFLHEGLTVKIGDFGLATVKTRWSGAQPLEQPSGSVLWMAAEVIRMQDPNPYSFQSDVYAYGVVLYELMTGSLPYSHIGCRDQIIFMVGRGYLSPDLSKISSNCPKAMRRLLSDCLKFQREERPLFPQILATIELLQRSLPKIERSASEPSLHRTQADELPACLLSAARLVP
A digest of the protocol:
as §1

Another test deals with T3, PDGFRa (Homo sapiens, UniProt P16234).
T3 construct: Nanosyn (contract laboratory that ran the panel)
A digest of the protocol:
as §1

In a further test the target is T4, YES (Homo sapiens, UniProt P07947).
T4 construct: Nanosyn (contract laboratory that ran the panel)
In outline: as §1

The next test has as its target T5, DDR2 (Homo sapiens, UniProt Q16832).
T5 construct: purchased Nanosyn (contract screening)
T5 sequence (Q16832 22-855): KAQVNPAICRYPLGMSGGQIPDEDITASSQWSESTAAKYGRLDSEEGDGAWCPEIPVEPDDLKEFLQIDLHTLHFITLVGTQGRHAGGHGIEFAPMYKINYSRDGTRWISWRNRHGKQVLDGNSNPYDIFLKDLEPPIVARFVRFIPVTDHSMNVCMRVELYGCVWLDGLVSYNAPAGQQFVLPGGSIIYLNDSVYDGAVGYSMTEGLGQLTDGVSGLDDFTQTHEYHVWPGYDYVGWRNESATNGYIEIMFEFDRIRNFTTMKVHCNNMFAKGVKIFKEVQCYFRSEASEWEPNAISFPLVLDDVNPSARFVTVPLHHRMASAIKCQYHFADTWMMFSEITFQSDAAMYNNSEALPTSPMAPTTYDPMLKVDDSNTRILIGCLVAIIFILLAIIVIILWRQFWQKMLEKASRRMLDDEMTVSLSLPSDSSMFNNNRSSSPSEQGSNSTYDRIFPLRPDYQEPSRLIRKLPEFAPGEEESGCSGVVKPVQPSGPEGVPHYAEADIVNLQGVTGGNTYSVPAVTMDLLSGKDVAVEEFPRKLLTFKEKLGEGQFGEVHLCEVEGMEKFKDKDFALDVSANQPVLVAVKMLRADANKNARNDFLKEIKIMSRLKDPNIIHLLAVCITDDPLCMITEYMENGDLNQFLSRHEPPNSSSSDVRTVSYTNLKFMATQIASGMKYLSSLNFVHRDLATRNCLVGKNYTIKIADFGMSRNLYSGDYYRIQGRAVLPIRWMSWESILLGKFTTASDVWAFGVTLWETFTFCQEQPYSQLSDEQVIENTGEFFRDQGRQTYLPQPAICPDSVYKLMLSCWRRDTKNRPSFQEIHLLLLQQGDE
A digest of the protocol:
as §1

Another test concerns the target T6, PIKfyve (Homo sapiens, UniProt Q9Y2I7).
T6 construct: Nanosyn (contract laboratory that ran the panel)
In outline:
as §1

In another test the target is T7, p38b (Homo sapiens, UniProt Q15759).
T7 construct: Nanosyn (contract laboratory that ran the panel)
A digest of the protocol: as §1

A further test deals with T8, KDR (Homo sapiens, UniProt P35968).
T8 construct: purchased Nanosyn (contract screening)
In outline: as §1

A further test has as its target T9, SPHK2 (Homo sapiens, UniProt Q9NRA0).
T9 construct: Nanosyn (contract laboratory that ran the panel)
T9 sequence (Q9NRA0 1-654): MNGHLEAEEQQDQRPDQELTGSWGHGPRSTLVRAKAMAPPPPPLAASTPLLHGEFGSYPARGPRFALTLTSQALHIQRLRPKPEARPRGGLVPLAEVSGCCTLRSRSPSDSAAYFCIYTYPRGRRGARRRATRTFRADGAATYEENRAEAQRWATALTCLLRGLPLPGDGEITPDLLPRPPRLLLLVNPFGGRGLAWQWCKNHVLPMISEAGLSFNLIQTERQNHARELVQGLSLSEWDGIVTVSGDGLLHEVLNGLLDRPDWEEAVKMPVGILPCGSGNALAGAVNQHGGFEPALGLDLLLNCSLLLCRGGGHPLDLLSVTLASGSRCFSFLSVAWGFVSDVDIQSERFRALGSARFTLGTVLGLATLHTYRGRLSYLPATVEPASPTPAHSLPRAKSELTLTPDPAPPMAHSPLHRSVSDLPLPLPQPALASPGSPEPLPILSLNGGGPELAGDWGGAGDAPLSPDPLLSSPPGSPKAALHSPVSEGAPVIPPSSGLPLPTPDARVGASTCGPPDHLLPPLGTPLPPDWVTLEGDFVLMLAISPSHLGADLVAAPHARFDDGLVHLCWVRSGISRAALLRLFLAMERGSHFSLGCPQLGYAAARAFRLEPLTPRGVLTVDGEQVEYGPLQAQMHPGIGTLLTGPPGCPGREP
In outline:
as §1

T4 sequence (P07947 whole entry): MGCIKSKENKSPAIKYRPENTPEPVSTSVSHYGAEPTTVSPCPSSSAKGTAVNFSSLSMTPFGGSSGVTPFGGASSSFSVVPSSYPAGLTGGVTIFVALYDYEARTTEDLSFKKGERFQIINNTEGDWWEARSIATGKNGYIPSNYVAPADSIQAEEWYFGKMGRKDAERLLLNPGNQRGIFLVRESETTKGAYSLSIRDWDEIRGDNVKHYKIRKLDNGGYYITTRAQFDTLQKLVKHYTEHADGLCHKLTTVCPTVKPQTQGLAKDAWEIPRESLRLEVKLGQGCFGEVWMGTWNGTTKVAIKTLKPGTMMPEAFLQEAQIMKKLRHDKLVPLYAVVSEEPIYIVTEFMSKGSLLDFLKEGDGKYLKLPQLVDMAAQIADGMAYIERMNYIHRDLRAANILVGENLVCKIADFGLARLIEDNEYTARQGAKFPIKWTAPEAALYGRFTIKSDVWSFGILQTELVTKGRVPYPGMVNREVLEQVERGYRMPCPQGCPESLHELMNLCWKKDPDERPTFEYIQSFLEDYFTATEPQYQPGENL
T7 sequence (Q15759 whole entry): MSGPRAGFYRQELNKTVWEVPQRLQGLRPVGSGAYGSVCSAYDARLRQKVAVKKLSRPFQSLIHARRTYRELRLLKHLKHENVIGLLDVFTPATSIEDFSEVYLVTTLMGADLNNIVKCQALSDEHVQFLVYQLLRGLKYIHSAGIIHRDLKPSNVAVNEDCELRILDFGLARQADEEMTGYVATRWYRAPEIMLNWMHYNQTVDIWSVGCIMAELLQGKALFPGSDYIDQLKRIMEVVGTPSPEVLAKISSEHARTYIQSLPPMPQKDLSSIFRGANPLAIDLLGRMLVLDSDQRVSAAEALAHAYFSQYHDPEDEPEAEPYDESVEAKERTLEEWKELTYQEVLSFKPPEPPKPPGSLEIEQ
T3 sequence (P16234 24-1089): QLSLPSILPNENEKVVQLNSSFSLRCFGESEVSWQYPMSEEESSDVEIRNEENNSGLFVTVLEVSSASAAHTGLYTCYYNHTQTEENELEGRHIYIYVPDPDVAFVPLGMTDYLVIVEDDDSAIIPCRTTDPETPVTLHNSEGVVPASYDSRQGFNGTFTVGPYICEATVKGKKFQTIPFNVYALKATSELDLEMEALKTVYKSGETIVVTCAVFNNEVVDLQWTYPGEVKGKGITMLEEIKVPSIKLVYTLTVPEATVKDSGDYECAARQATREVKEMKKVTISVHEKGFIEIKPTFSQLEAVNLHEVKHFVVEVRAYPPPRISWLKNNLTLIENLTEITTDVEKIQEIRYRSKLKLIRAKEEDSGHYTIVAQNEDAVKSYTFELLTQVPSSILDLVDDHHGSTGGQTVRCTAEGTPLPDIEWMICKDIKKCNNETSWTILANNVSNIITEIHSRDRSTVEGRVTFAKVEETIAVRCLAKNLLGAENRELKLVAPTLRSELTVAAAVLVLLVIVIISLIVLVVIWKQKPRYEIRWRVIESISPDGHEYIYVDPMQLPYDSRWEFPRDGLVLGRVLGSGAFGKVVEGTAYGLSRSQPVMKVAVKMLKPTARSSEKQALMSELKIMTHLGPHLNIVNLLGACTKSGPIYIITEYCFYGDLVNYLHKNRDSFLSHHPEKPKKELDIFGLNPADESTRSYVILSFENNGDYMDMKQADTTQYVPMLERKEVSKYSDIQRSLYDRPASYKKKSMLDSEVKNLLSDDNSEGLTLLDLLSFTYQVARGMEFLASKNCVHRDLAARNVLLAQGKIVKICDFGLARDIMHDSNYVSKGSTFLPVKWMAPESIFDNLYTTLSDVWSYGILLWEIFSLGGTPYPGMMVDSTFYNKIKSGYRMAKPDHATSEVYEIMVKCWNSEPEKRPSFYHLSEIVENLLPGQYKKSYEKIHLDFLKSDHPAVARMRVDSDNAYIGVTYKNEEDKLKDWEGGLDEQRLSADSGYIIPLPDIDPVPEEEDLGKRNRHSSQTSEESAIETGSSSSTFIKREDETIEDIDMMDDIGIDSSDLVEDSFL
T6 sequence (Q9Y2I7 whole entry): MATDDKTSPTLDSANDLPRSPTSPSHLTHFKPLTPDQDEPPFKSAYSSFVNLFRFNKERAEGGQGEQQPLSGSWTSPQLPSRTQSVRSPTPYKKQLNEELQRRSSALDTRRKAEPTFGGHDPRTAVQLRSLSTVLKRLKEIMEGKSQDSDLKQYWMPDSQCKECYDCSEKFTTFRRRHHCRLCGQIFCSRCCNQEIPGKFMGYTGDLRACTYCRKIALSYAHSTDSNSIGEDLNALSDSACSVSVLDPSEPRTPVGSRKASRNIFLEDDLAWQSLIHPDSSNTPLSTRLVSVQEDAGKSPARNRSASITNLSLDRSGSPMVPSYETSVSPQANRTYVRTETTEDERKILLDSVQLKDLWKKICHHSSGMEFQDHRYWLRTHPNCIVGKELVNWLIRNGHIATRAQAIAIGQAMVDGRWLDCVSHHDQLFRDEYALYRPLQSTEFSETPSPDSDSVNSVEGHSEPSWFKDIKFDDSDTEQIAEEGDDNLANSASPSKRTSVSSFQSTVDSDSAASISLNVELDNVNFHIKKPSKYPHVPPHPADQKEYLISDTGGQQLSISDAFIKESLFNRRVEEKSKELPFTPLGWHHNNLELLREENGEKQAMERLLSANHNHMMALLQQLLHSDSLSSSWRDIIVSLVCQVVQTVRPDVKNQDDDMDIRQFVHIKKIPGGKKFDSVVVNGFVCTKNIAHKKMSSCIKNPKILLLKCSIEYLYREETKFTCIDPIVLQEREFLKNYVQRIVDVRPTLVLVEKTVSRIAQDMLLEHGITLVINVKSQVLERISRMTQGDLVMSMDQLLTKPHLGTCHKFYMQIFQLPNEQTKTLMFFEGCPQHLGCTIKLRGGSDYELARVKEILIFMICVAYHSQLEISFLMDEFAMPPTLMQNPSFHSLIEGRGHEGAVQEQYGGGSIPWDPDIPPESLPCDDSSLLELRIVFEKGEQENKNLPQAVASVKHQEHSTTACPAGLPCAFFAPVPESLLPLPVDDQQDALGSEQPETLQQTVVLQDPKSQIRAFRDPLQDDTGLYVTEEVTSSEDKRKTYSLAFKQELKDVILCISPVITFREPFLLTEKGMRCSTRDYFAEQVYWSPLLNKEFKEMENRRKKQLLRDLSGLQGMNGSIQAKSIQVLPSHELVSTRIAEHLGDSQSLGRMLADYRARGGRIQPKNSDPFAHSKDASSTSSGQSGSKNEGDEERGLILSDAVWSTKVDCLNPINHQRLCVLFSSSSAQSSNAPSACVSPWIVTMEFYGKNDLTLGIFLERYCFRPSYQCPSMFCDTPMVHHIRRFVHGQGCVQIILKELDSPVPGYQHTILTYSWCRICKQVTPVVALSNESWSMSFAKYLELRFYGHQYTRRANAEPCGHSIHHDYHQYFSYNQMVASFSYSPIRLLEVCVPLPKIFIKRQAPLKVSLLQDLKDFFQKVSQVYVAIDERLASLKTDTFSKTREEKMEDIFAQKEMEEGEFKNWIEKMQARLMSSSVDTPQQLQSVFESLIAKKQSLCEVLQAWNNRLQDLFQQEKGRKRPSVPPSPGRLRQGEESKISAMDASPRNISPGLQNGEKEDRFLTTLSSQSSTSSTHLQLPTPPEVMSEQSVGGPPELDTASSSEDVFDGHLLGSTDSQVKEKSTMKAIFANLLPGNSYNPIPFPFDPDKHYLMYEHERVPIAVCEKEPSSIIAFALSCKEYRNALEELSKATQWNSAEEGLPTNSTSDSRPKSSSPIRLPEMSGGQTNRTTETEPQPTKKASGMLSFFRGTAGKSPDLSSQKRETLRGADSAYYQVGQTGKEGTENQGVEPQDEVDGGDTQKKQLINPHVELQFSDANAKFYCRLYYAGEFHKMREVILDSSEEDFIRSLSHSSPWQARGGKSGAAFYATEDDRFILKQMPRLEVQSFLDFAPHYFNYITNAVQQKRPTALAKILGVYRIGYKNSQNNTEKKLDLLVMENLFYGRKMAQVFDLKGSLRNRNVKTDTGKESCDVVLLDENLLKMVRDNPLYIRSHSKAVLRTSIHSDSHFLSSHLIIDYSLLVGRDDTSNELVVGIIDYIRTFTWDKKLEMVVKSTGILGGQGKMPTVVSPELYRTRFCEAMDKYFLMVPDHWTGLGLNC

Regarding `CSc1cc(C(=O)Nc2cc(Oc3ccnc(C(=O)NC4CNC4)c3)ccc2F)nn1-c1ccc(F)cc1` [Ex8, N-(azetidin-3-yl)-4-(4-fluoro-3-(1-(4-fluorophenyl)-5-(methylthio)-1H-pyrazole-3-carboxamido)phenoxy)picolinamide], the inhibition (commonly how much of the control response was suppressed) at 5 µM against HGK is 80 to 89%; on ARAF, below 79%; at PDGFRa, below 79%; at YES it was below 79%; against DDR2, below 79%; on PIKfyve it was below 79%. Moreover, the inhibition at 5 µM against p38b, against KDR and against SPHK2 was below 79% each time.
Consider `CNC(=O)c1cc(Oc2ccc(F)c(NC(=O)c3cc([S+](C)[O-])n(-c4ccc(F)cc4)n3)c2)ccn1` (stereo not drawn) [Ex7, 4-(4-fluoro-3-(1-(4-fluorophenyl)-5-(methylsulfinyl)-1H-pyrazole-3-carboxamido)phenoxy)-N-methylpicolinamide], for which the inhibition at 5 µM on HGK, against ARAF, against PDGFRa, on YES, at DDR2 and against PIKfyve was below 79% in each case. The inhibition at 5 µM against p38b, on KDR and on SPHK2 was below 79% each time.
Turning to `Cc1ccc(NC(=O)c2cc([S+](C)[O-])n(-c3ccc(F)cc3)n2)cc1-c1cc(OCCO)nc(N2CCOCC2)c1` (stereo not drawn) [Ex10, 1-(4-fluorophenyl)-N-(3-(2-(2-hydroxyethoxy)-6-morpholinopyridin-4-yl)-4-methylphenyl)-5-(methylsulfinyl)-1H-pyrazole-3-carboxamide], the inhibition at 5 µM against HGK was below 79%; against ARAF, at least 95%; against PDGFRa, below 79%; against YES, below 79%; at DDR2, 80 to 89%; on PIKfyve it was below 79%. Also, the inhibition at 5 µM on p38b, against KDR and on SPHK2 was below 79% each time.
For `Cc1ccc(NC(=O)c2cc(S(C)(=O)=O)n(-c3ccc(F)cc3)n2)cc1-c1cc(OCCO)nc(N2CCOCC2)c1` [Ex9, 1-(4-fluorophenyl)-N-(3-(2-(2-hydroxyethoxy)-6-morpholinopyridin-4-yl)-4-methylphenyl)-5-(methylsulfonyl)-1H-pyrazole-3-carboxamide], the inhibition at 5 µM against HGK was below 79%; against ARAF, at least 95%; at PDGFRa, below 79%; against YES, below 79%; on DDR2, 90 to 94%; against PIKfyve it was below 79%. The values for the inhibition at 5 µM against p38b, against KDR and against SPHK2 were 80 to 89%, below 79% and below 79%, respectively.
In the case of `Cc1ccc(NC(=O)c2cc(S(C)(=O)=O)n(-c3ccc(F)cc3)n2)cc1Nc1ccc2ncn(C)c(=O)c2c1` [Ex4, 1-(4-fluorophenyl)-N-(4-methyl-3-((3-methyl-4-oxo-3,4-dihydroquinazolin-6-yl)amino)phenyl)-5-(methylsulfonyl)-1H-pyrazole-3-carboxamide], the inhibition at 5 µM on HGK was below 79%; on ARAF it was at least 95%; at PDGFRa, below 79%; on YES, below 79%; on DDR2, at least 95%; at PIKfyve it was below 79%. The inhibition at 5 µM on p38b, against KDR and against SPHK2 was below 79% in each case.
On to `CCOC(=O)Nc1cn2nc(Nc3cc(NC(=O)c4cc([S+](C)[O-])n(-c5ccc(F)cc5)n4)ccc3C)ccc2n1` (stereo not drawn) [Ex18, ethyl (6-((5-(1-(4-fluorophenyl)-5-(methylsulfinyl)-1H-pyrazole-3-carboxamido)-2-methylphenyl)amino)imidazo[1,2-b]pyridazin-2-yl)carbamate], for which the inhibition at 5 µM at HGK was below 79%; on ARAF it was below 79%; against PDGFRa, 90 to 94%; at YES it was 90 to 94%; against DDR2, at least 95%; at PIKfyve it was below 79%. Further, the inhibition at 5 µM against p38b is 80 to 89%; against KDR, below 79%; against SPHK2, 80 to 89%.
In the case of `Cc1ccc(NC(=O)c2cc([S+](C)[O-])n(-c3ccc(F)cc3)n2)cc1C#Cc1cnc2cccnn12` (stereo not drawn) [Ex6, 1-(4-fluorophenyl)-N-(3-(imidazo[1,2-b]pyridazin-3-ylethynyl)-4-methylphenyl)-5-(methylsulfinyl)-1H-pyrazole-3-carboxamide], the inhibition at 5 µM against HGK is below 79%; at ARAF it was below 79%; on PDGFRa, at least 95%; against YES, 80 to 89%; at DDR2, below 79%; at PIKfyve it was 90 to 94%. For the same molecule, the inhibition at 5 µM against p38b was 80 to 89%; at KDR, below 79%; against SPHK2, below 79%.
